Reference: ChEMBL document CHEMBL1201862, “PubChem BioAssay data set” (2004)
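Values below derive from 48-hour exposures of cells grown in 96-well plates, with endpoints linearly interpolated between the two concentrations bracketing the appropriate inhibition level. GI50 is the concentration that inhibits growth by half.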 Active and inactive are the calls of the source. Rule as the data show it: active = GI50 up to about 1.1 µM and inactive = higher.

Experiments:
Assay in all cases: NCI anticancer screen, dose series, 48 h
[1] = tested on: M14
[2] = tested on: HL-60
[3] = tested on: NCI-H460
[4] = tested on: 786-0
[5] = tested on: SK-MEL-2
[6] = tested on: NCI/ADR-RES
[7] = tested on: SK-MEL-5
[8] = tested on: ACHN
[9] = tested on: OVCAR-4
[10] = tested on: SN12C
[11] = tested on: DU-145
[12] = tested on: SNB-19
[13] = tested on: MDA-N
[14] = tested on: HOP-62
[15] = tested on: PC-3
[16] = tested on: OVCAR-3
[17] = tested on: SK-OV-3

Measured: GI50

O=c1[nH]nc(Nc2ccccc2)c2nnn(Cc3ccccc3)c12
inactive: [1] > 100 µM | [2] > 100 µM | [3] 85.3 µM | [4] 25.3 µM | [5] > 100 µM | [6] 50.8 µM | [7] > 100 µM | [8] > 100 µM | [9] 8.32 µM | [10] > 100 µM | [11] > 100 µM | [12] 74 µM | [13] > 100 µM | [14] 4.52 µM | [15] > 100 µM

CCCCCCCCCCCCCCCC(=O)OC(COC(C)=O)CO[PH](=O)O (centres undefined)
inactive: [1] 14.7 µM | [2] 31.9 µM | [3] 31.6 µM | [4] 20.3 µM | [5] 19.5 µM | [6] 23.1 µM | [7] > 100 µM | [8] 27.7 µM | [9] 58.2 µM | [10] 48.5 µM | [11] 71.4 µM | [12] 36.5 µM | [13] 31.3 µM | [15] 30.5 µM | [16] > 100 µM

CC(C)(C)NC(=O)N1N=C(c2ccccc2)C1c1ccccc1 (centres undefined)
inactive: [1] 61.5 µM | [2] 32.6 µM | [3] 41.1 µM | [4] 15.7 µM | [6] 35.2 µM | [7] 20.2 µM | [8] 34.5 µM | [9] 56.5 µM | [10] 43.5 µM | [11] > 100 µM | [17] > 100 µM | [12] 34.3 µM | [13] 44.6 µM | [15] 26.6 µM | [16] 21.5 µM

N=C(N)NS(=O)(=O)c1ccc(/N=N/c2c(O)c(C(=O)O)cc3ccccc23)cc1
inactive: [1] > 100 µM | [2] > 100 µM | [3] > 100 µM | [4] > 100 µM | [5] > 100 µM | [6] > 100 µM | [7] > 100 µM | [8] > 100 µM | [9] > 100 µM | [10] > 100 µM | [11] > 100 µM | [17] > 100 µM | [13] > 100 µM | [14] > 100 µM | [15] > 100 µM | [16] > 100 µM

Cc1ccc(S(=O)(=O)NC(=O)NC(Cc2ccc(O)cc2)C(=O)O)cc1 (centres undefined)
inactive: [1] > 100 µM | [2] > 100 µM | [3] > 100 µM | [4] > 100 µM | [5] > 100 µM | [6] > 100 µM | [7] > 100 µM | [9] > 100 µM | [10] > 100 µM | [11] > 100 µM | [17] > 100 µM | [12] > 100 µM | [13] > 100 µM | [14] > 100 µM | [15] > 100 µM

CCC(CCN)(CCN)[N+](=O)[O-]
inactive: [1] > 100 µM | [2] > 100 µM | [3] > 100 µM | [4] > 100 µM | [5] > 100 µM | [6] > 100 µM | [7] > 100 µM | [10] > 100 µM | [11] > 100 µM | [17] > 100 µM | [13] > 100 µM | [15] > 100 µM

CN/C(N)=N/N=C1/C(=O)Nc2ccccc21
inactive: [1] > 100 µM | [2] > 100 µM | [3] > 100 µM | [4] > 100 µM | [5] > 100 µM | [6] > 100 µM | [7] > 100 µM | [8] > 100 µM | [9] > 100 µM | [10] > 100 µM | [11] > 100 µM | [17] > 100 µM | [12] > 100 µM | [13] > 100 µM | [14] > 100 µM | [15] > 100 µM
